From patent publication US12310967B2, “Compositions and methods of treatment for neurological disorders comprising motor neuron diseases” (Gliapharm SA, priority 2017, dated 2025)
Where a name gives a salt, the structure may show the parent alone.

How the values were obtained:
Type in all cases: cell-based, mouse
primary astrocytes [1] = assay: Intracellular glycogen quantification; conditions: Prestwick hits, 10 μM, 3 h
Procedure: For glycogen dosage, a protein dosage was first performed in order to assess whether harvested astrocytes from primary cell cultures yielded enough and equivalent amounts of proteins comparing each replicate, and to ensure that the obtained differences in glycogen quantities were due to drug action and not to inner protein quantities.
Astrocytes used for these dosages were previously grown in 6-well plates for 17 days and stimulated with Vehicle (DMSO) or drug of interest (1 μM to 100 μM) for 180 min, at 37° C. 5% CO2/95% air in D5030 complete medium. Medium was removed and replaced with 600 μl of 30 mM Tris HCl, and stored at −20° C.
Proteins were dosed using the micro BCA Protein Assay kit (Thermo Scientific), as described in the manufacturer's instructions. Briefly, thawed cells were sonicated and 5 μl aliquots were placed in a transparent 96-well plate, to which we added 25 μl 30 mM Tris HCl, 70 μl H2O and 100 μl of a BCA mix (made as described in manufacturer's guidelines). After a 120 min-incubation at 37° C., absorbance was measured with Safire 2 spectrophotometer at a wavelength of 562 nm, and protein quantities were determined from a standard curve of Bovine Serum Albumin (BSA).
Glycogen was quantified using a 250 μl-aliquot of the same stimulated, thawed, and sonicated cells. After an incubation period of 30 min at 90° C. and 400 rpm, 28 μl of an acetic acid/sodium acetate (both from Sigma) 0.1M pH 4.6 buffer was added to each aliquot, which was then separated in two. Each split aliquot received whether 5 μl of amyloglucosidase (Roche) or 5 μl H2O, and all cell solutions were incubated for 120 min in a shaking 37° C.-waterbath. After a centrifugation at 16'000G for 5 min, 20 μl of supernatant were placed 96-well plate, to which 150 μl of a mix containing 0.67 mM ATP (Roche), 0.67 mM NADP (Roche), 1.8% hexokinase/glucose-6-phosphate dehydrogenase (Roche) and 0.1M Tris Buffer-HCl/3.3 mM magnesium (Fluka)/pH 8.1 buffer was added. Fluorescence was measured with Safire 2 spectrophotometer (340 nm excitation/440 nm emission). Glycogen concentration was obtained by substracting glucose value of samples with amyloglucosidase to samples without amyloglucosidase, and were expressed relative to the amount of proteins previously determined.
Levels of intracellular glycogen in astrocytes were measured at 3 h after stimulation with 20 Hits from the Prestwick library (10 μM each), as shown in FIG. 2. n=6-10; Ctrl pos. is glutamate (0.5 mM). Statistical analysis consisted in ANOVA followed by Fisher LSD post-hoc test for pair-wise comparisons.
(§1) Statistical analysis consisted in ANOVA followed by Fisher LSD post-hoc test for pair-wise comparisons.

primary astrocytes [2] = assay: Extracellular lactate quantification; conditions: for Score_LACTATE: Appendix I, secondary screening: extracellular lactate
Procedure: Secretion of L-lactate was determined in the extracellular medium of 96-well plated astrocytes after 90 min stimulation (at 37° C., in 5% CO2/95% air conditions) with the drug of interest. The stimulation medium was composed of D5030 medium (completed with D-glucose 5 mM and 44 mM sodium bicarbonate) for 90 min in concentrations ranging from 0 to 100 μM.
Briefly, 200 μl of a Glycine (Sigma)-Semicarbazide (Acros) 0.2M pH 10 buffer containing 3 mM NAD (Roche) and LDH 14 U/ml (Roche) was added to each well of a 96-well plate containing 30 μl aliquots complemented with 20 μl fresh complete D5030 medium. Samples were incubated at 37° C. for 1 h. After samples cooled down at room temperature, the fluorescence intensity (340 nm excitation/450 nm emission) that represents the amount of NADH produced was measured, and lactate concentration values were determined from a standard curve of L-lactate.
as §1
Levels of lactate secreted by astrocytes were measured in the extracellular medium at 90 min after stimulation with hits (molecules) from the CDC54K library.

primary astrocytes [3] = assay: High throughput screening (HTS) for lactate secretion: acidification of extracellular medium (SNARF5); set-up: key to Score / HTS Score (SNARF5) / Score_SNARF: fraction of plate positive-control activity (1 = 100%); conditions: Appendix I, primary screening confirmation (SNARF5)
Procedure: Primary cultures of cerebrocortical astrocytes were obtained from 1-2-day-old OF1 mouse pups (Charles River Laboratories). Briefly, cortices were isolated and minced in small pieces under a dissecting microscope. The cells were incubated for 30 min at 37° C. in a solution containing 20 U/ml of papain enzyme (Worthington Biochemical), L-cysteine 1 mM (Sigma), and 10 kU/ml DNase I (Worthington Biochemical) for an enzymatic dissociation. Papain activity was stopped by the addition of fetal calf serum (FCS) to the solution, and a single-cell suspension was then obtained by mechanical dissociation, which consisted in cells trituration in a DMEM (D7777, Sigma-Aldrich) medium (supplemented with 44 mm NaHCO3, and 10 ml/L antibiotic/antimycotic solution) containing 10% FCS. The cells were seeded at an average density of 6×10^4 cells/cm^2 in poly-D-lysine-coated 96, 12 or 6-well culture plates, depending on their use, and incubated at 37° C. in a humidified atmosphere containing 5% CO2/95% air. Culture medium was renewed twice per week. Cells were stimulated and harvested between DIV14 and DIV17, when confluence and cell growth were optimal.
Secretion of lactate in a high-throughput screening (HTS) fashion was measured indirectly through the acidification of extracellular medium. To this end, primary astrocytes grown in 96-well plates for 17 days were stimulated with the compounds as listed herein.
After washing the cells twice with stimulation medium (DMEM (D5030, Sigma), 3 mM NaHCO3 and 5 mM Glucose) at 37° C., cells were stimulated with the compounds at a final concentration of 10 uM (1% DMSO final) in 50 ul per well of stimulation medium supplemented with 10 uM of the extracellular pH sensor SNARF-5F %-(AND-6)-CAR (Life Technologies Corporation). Each compound was tested in two different plates for duplicates.
After 90 min stimulation, fluorescence was read at exc. (excitation) 480 nm/emm. (emission) 580 nm and at exc 480 nm/emm. 630 nm. The ratio of fluorescence between 630 nm and 580 emission values, which represents extracellular pH, was calculated.
In each plate, 8 wells were used for negative controls (DMSO) and 8 wells were used for positive controls (CCCP 2 uM in DMSO). Z prime values were calculated for each of the plates tested and values<0 were discarded.
The average and SD of compounds' values tested in duplicates were calculated, and compound was noted as HIT when the difference between compound's average and negative control's average was greater than three times the sum of compound's SD and negative controls' SD. Only scores greater than 40% were considered as lead Hits for the CDC54K library; for the remaining libraries, all hits were considered. Scores are calculated as the % of activity compared to the positive control in each plate (which is 100%).
Primary screening hits were cherry picked on new plates and confirmed for SNARF5 effect, after having discarded those compounds that are fluorescent (exc. 480 nm/emm. 580 nm or 630 nm) before stimulation. Extracellular medium was next analyzed for extracellular lactate quantification for secondary screening.
Identification of lactate-enhancing drugs with high throughput screening (HTS) experiments on astrocytes primary cultures using extracellular pH dye (SNARF5F 5-(and-6)-carboxylic acid) for 90 min. The procedure is described in Material and Methods (2. Cell culture, 2.1. HTS for lactate secretion and 2.2. Extracellular lactate quantification).
The procedure was performed as follows: • Primary screening: acidification of the extracellular medium • Primary screening confirmation: acidification of the extracellular medium, removal of compounds with fluorescent activity at exc. 480 nm/emm. 580 nm or 630 n. • Secondary screening: dosage of extracellular lactate

SMILES | Glycogen (statistical significance of glycogen degradation) (primary astrocytes [1]) | Score_LACTATE (primary astrocytes [2]) | Score_SNARF (primary astrocytes [3]) | Score Lact. (primary astrocytes [2]; Appendix II, CDC54K library)
O=C(COc1ccc(Cl)cc1)N1CCN(Cc2ccc3c(c2)OCO3)CC1 [Fipexide hydrochloride] | ns |  |  | 
COc1cccc(-c2cc3n(n2)CCCN(Cc2ccncc2)C3)c1 [T202-0973] |  | 0 | 0.2834 | 
O=C(C[n+]1cc(-c2ccc(Br)cc2)n2c1CCCCC2)c1ccccc1.[Br-] [T0500-4648] |  | 1.116 | 1.034 | 
Fc1ccc(Nc2nc(N3CCOCC3)c3ccccc3n2)cc1 [T0508-5193] |  | 0 | 0.3052 | 
O=S(=O)(Nc1ccc(O)c(Cl)c1)c1ccc2ccccc2c1 [T0517-8939] |  | 0 | 0.6382 | 
CC(C)OCCCNc1ncnc2c1CCC2 [T636-0027] |  | 0 | 0 | 
Cc1ccc(CNc2ncnc3c2CCC3)o1 [T636-0054] |  | 0 | 0 | 
COc1cccc(CNc2ncnc3c2CCC3)c1 [T636-0134] |  | 0.3283 | 0 | 
Cc1ccsc1C(=O)NC1CCN(c2ncnc3c2CCC3)C1 (centres unmarked) [T636-1114] |  | 0.5477 | 0.6238 | 
O=C(NCc1ccccc1)NC1CCN(c2ncnc3c2CCC3)C1 (centres unmarked) [T636-1210] |  | 0.3226 | 0.4305 | 
O=C(NCc1cccc(F)c1)NC1CCN(c2ncnc3c2CCC3)C1 (centres unmarked) [T636-1243] |  | 0 | 0.4179 | 
O=S(=O)(NC1CCN(c2ncnc3c2CCC3)C1)c1ccccc1 (centres unmarked) [T636-1250] |  | 0.8982 | 0.8587 | 
Cc1ccc(CN2CCN(c3ncnc4c3CCC4)CC2)o1 [T636-1937] |  | 0.8045 | 0.473 | 
COc1ccc(CN2CCN(c3ncnc4c3CCC4)CC2)cc1OC [T636-2007] |  | 0.9841 | 0.8596 | 
O=C(Cc1cccc(F)c1)N1CCC(Nc2ncnc3c2CCC3)C1 (centres unmarked) [T636-2360] |  | 0.413 | 0 | 
O=C(c1ccc(Cl)s1)N1CCC(Nc2ncnc3c2CCC3)C1 (centres unmarked) [T636-2391] |  | 0.8854 | 0.8743 | 
Cn1nccc1C(=O)N1CCC(Nc2ncnc3c2CCC3)C1 (centres unmarked) [T636-2425] |  | 0.3027 | 0.2725 | 
O=S(=O)(Nc1ccc(F)c(Cl)c1)c1ccc2ccccc2c1 [T5231424] |  | 0.5258 | 0.3707 | 

SMILES | Glycogen (statistical significance of glycogen degradation) (primary astrocytes [1]) | Score_LACTATE (primary astrocytes [2]) | Score_SNARF (primary astrocytes [3]) | Score Lact. (primary astrocytes [2]; Appendix II, CDC54K library)
COc1ccccc1S(=O)(=O)Nc1ccc2nc(C)sc2c1 [T5246417] |  | 0 | 0.2455 | 
FC(F)(F)c1cccc(CNc2ncnc3sccc23)c1 [T5346988] |  | 0.9327 | 0.9569 | 
COc1ccc(C2SCCN2S(=O)(=O)c2cccc(C)c2)cc1OC (centres unmarked) [T5463658] |  | 0.3773 | 0.4683 | 
Cc1nc2ccc(NS(=O)(=O)c3ccccc3F)cc2s1 [T5511047] |  | 0.3825 | 0.5545 | 
Cc1cc(S(=O)(=O)NCc2ccncc2)c(Cl)cc1Cl [T5581430] |  | 0 | 0.505 | 
Cc1nc(-c2cccc(NS(=O)(=O)c3ccc(N4CCCC4=O)cc3)c2)cs1 [T5599698] |  | 0.7496 | 0.8856 | 
O=C(NC1CC1)c1cccc(NS(=O)(=O)c2ccc(N3CCCC3=O)cc2)c1 [T5618591] |  | 0.3601 | 0.5353 | 
CC(=O)c1cccc(NC(=O)C(C)Sc2ncnc3ccsc23)c1 (centres unmarked) [T5627721] |  | 0.9487 | 0.7385 | 
CC1c2ccsc2CCN1c1ncnc2sccc12 (centres unmarked) [T5630309] |  | 0.7 | 0.4816 | 
O=S(=O)(Nc1ccc2[nH]ncc2c1)c1ccc(C(F)(F)F)cc1 [T5653029] |  | 1.354 | 0.5642 | 
CC(Nc1ncnc2sccc12)c1ccccn1 (centres unmarked) [T5672380] |  | 0.5883 | 0.7508 | 0.58
c1csc(C(Nc2ncnc3sccc23)C2CC2)c1 (centres unmarked) [T5713637] |  | 1.287 | 1.184 | 
c1ccc(C(Nc2ncnc3sccc23)C2CC2)cc1 (centres unmarked) [T6016487] |  | 1.857 | 1.081 | 
CC(=O)N1CCCc2cc(S(=O)(=O)NCc3cccc(C(F)(F)F)c3)ccc21 [T6099519] |  | 0 | 0.3944 | 
Cc1ccc(F)cc1NC(=O)Cc1nn(C)c(=O)c2ccccc12 [T6302989] |  | 0 | 0.4072 | 
c1ccc2c(c1)CN(c1ncnc3sccc13)CCN2 [T6768300] |  | 0 | 0.3742 | 
CN(C)Cc1cccc(CNc2ncnc3sccc23)c1 [T6783542] |  | 1.033 | 0.9183 | 
O=c1n(CCCN2CCN(c3cccc(Cl)c3)CC2)nc2ccccn12 [Trazodone hydrochloride] | ns |  |  | 
